In PubChem BioAssay AID292 (DTP/NCI, 2004):
Where “and” joins values, the source holds several entries; their conditions need not be identical. Equal entries are not always repeated. Toxic doses and inconclusive results are not listed.

System: B6C3F1 mice, ip Sarcoma M5076, median survival T/C
Test: NCI In Vivo Anticancer Drug Screen. Data for tumor model Sarcoma M5076 (intraperitoneal) in B6C3F1 mice
Conditions: endpoint: median survival time, higher = longer survival
How it was run: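 Survival measured in treated (T) and vehicle control (C) mice with transplantable tumour; result given as T divided by C.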

[1] = dose: 50.0 mg/kg/injection, schedule: Q04DX004 (ip), vehicle: Klucel (hydroxypropylcellulose) (HPC)
[2] = dose: 100.0 mg/kg/injection, schedule: Q04DX004 (ip), vehicle: Klucel (hydroxypropylcellulose) (HPC)
[3] = dose: 200.0 mg/kg/injection, schedule: Q04DX004 (ip), vehicle: Klucel (hydroxypropylcellulose) (HPC)
[4] = dose: 400.0 mg/kg/injection, schedule: Q04DX004 (ip), vehicle: Klucel (hydroxypropylcellulose) (HPC)
[5] = dose: 50.0 mg/kg/injection, schedule: Q04DX004 (ip), vehicle: saline with Tween-80
[6] = dose: 100.0 mg/kg/injection, schedule: Q04DX004 (ip), vehicle: saline with Tween-80
[7] = dose: 200.0 mg/kg/injection, schedule: Q04DX004 (ip), vehicle: saline with Tween-80
[8] = dose: 37.5 mg/kg/injection, schedule: Q04DX004 (ip), vehicle: saline with Tween-80
[9] = dose: 75.0 mg/kg/injection, schedule: Q04DX004 (ip), vehicle: saline with Tween-80
[10] = dose: 150.0 mg/kg/injection, schedule: Q04DX004 (ip), vehicle: saline with Tween-80
[11] = dose: 50.0 mg/kg/injection, schedule: Q04DX004 (ip), vehicle: saline
[12] = dose: 100.0 mg/kg/injection, schedule: Q04DX004 (ip), vehicle: saline
[13] = dose: 25.0 mg/kg/injection, schedule: Q04DX004 (ip), vehicle: suspension in saline
[14] = dose: 50.0 mg/kg/injection, schedule: Q04DX004 (ip), vehicle: suspension in saline

CNC(=S)SC1=NS(=O)(=O)c2ccccc2N1
T/C [1]: 105 % of control | T/C (dose: 62.0 mg/kg/injection, schedule: Q04DX004 (ip), vehicle: Klucel (hydroxypropylcellulose) (HPC)): 102 % of control | T/C [2]: 103 % of control | T/C (dose: 104.0 mg/kg/injection, schedule: Q04DX004 (ip), vehicle: Klucel (hydroxypropylcellulose) (HPC)): 103 % of control | T/C (dose: 173.0 mg/kg/injection, schedule: Q04DX004 (ip), vehicle: Klucel (hydroxypropylcellulose) (HPC)): 113 % of control | T/C [3]: 96 % of control | T/C [4]: 109 % of control

NC(=S)N/N=C/c1cc(=O)c2cc(Cl)ccc2o1
T/C (dose: 75.0 mg/kg/injection, schedule: Q04DX004 (ip), vehicle: DMSO): 92 % of control

CCC(=O)[O][Bi]([c]1ccccc1)[c]1ccccc1
T/C (dose: 3.0 mg/kg/injection, schedule: Q04DX004 (ip), vehicle: Klucel (hydroxypropylcellulose) (HPC)): 101 % of control | T/C (dose: 6.0 mg/kg/injection, schedule: Q04DX004 (ip), vehicle: Klucel (hydroxypropylcellulose) (HPC)): 98 % of control | T/C (dose: 12.0 mg/kg/injection, schedule: Q04DX004 (ip), vehicle: Klucel (hydroxypropylcellulose) (HPC)): 102 % of control | T/C (dose: 24.0 mg/kg/injection, schedule: Q04DX004 (ip), vehicle: Klucel (hydroxypropylcellulose) (HPC)): 89 % of control

Cc1cc2c(=O)cc(-c3ccccc3)oc2c(C(=O)O)c1C
T/C (dose: 31.25 mg/kg/injection, schedule: Q04DX004 (ip), vehicle: saline with Tween-80): 98 % of control | T/C (dose: 62.5 mg/kg/injection, schedule: Q04DX004 (ip), vehicle: saline with Tween-80): 93 % of control | T/C (dose: 125.0 mg/kg/injection, schedule: Q04DX004 (ip), vehicle: saline with Tween-80): 113 % of control

Nc1cc(=O)n(Cc2ccco2)c(=S)[nH]1
T/C [5]: 106 % of control | T/C [6]: 97 % of control | T/C [7]: 106 % of control | T/C (dose: 400.0 mg/kg/injection, schedule: Q04DX004 (ip), vehicle: saline with Tween-80): 107 % of control | T/C (dose: 800.0 mg/kg/injection, schedule: Q04DX004 (ip), vehicle: saline with Tween-80): 97 % of control

Cc1ccc(/C=C2/N=C([Se])N(C)C2=O)cc1
T/C [8]: 124 % of control | T/C [9]: 98 % of control | T/C [10]: 89 % of control

NC(=O)C1C=CN(Cc2ccccc2)C=C1
T/C [5]: 111 % of control | T/C [6]: 116 % of control | T/C [7]: 106 % of control

CN(C)N=Nc1ccc(C(=O)O)cc1
T/C (dose: 25.0 mg/kg/injection, schedule: Q04DX004 (ip), vehicle: saline): 122 % of control | T/C [11]: 153 % of control and 159 % of control and 169 % of control | T/C [12]: 168 % of control and 178 % of control and 181 % of control

CC1CC(Nc2ccc(NC3=CC(=O)OC(C)C3)cc2)=CC(=O)O1 (configuration not stated)
T/C [8]: 99 % of control | T/C [9]: 97 % of control | T/C [10]: 94 % of control | T/C (dose: 300.0 mg/kg/injection, schedule: Q04DX004 (ip), vehicle: saline with Tween-80): 90 % of control

CCOc1ccc(N2C(=O)C(=O)C(C(C)=O)C2=O)cc1 (configuration not stated)
T/C [1]: 102 % of control | T/C [2]: 102 % of control | T/C [3]: 101 % of control | T/C [4]: 100 % of control

CC1Oc2cc3c(-c4c(O)cc(O)c5c(O)c6c(cc45)OC(C)C(C)C6=O)c(O)cc(O)c3c(O)c2C(=O)C1C (configuration not stated)
T/C (dose: 0.62 mg/kg/injection, schedule: Q01DX009 (ip), vehicle: suspension in saline): 102 % of control | T/C (dose: 1.25 mg/kg/injection, schedule: Q01DX009 (ip), vehicle: suspension in saline): 109 % of control | T/C (dose: 1.25 mg/kg/injection, schedule: Q04DX004 (ip), vehicle: suspension in saline): 151 % of control | T/C (dose: 1.8 mg/kg/injection, schedule: Q04DX004 (ip), vehicle: suspension in saline): 97 % of control and 115 % of control | T/C (dose: 3.0 mg/kg/injection, schedule: Q04DX004 (ip), vehicle: suspension in saline): 107 % of control and 114 % of control | T/C (dose: 8.33 mg/kg/injection, schedule: Q04DX004 (ip), vehicle: suspension in saline): 123 % of control

CN(C)[C@@H]1C(=O)C(C(N)=O)=C(O)[C@@]2(O)C(=O)C3=C(O)c4c(O)ccc(Cl)c4[C@@](C)(O)[C@H]3C[C@@H]12
T/C [13]: 86 % of control | T/C [14]: 96 % of control | T/C (dose: 100.0 mg/kg/injection, schedule: Q04DX004 (ip), vehicle: suspension in saline): 91 % of control

O=[N+]([O-])c1c(O)c(CNCCCO)cc(CNCCCO)c1O
T/C (dose: 6.25 mg/kg/injection, schedule: Q04DX004 (ip), vehicle: suspension in saline): 98 % of control | T/C (dose: 12.5 mg/kg/injection, schedule: Q04DX004 (ip), vehicle: suspension in saline): 99 % of control | T/C [13]: 101 % of control | T/C [14]: 118 % of control

CCOP1(OCC)(SSC)OC(=O)C(C)S1 (configuration not stated)
T/C (dose: 18.75 mg/kg/injection, schedule: Q04DX004 (ip), vehicle: saline with Tween-80): 92 % of control | T/C [8]: 88 % of control | T/C [9]: 98 % of control

O=S(=O)(O)O
T/C (dose: 30.0 mg/kg/injection, schedule: Q01DX009 (ip), vehicle: water): 103 % of control | T/C (dose: 44.0 mg/kg/injection, schedule: Q01DX009 (ip), vehicle: water): 96 % of control

COc1ccc(C[C@H](N)C(=O)NC2C(CO)OC(n3cnc4c(N(C)C)ncnc43)C2O)cc1 (some centres not stated)
T/C [11]: 89 % of control | T/C [12]: 117 % of control | T/C (dose: 200.0 mg/kg/injection, schedule: Q04DX004 (ip), vehicle: saline): 102 % of control | T/C (dose: 400.0 mg/kg/injection, schedule: Q04DX004 (ip), vehicle: saline): 108 % of control

[Na+]
T/C (dose: 50.0 mg/kg/injection, schedule: Q04DX004 (ip), vehicle: water): 94 % of control | T/C (dose: 100.0 mg/kg/injection, schedule: Q04DX004 (ip), vehicle: water): 97 % of control | T/C (dose: 200.0 mg/kg/injection, schedule: Q04DX004 (ip), vehicle: water): 101 % of control | T/C (dose: 400.0 mg/kg/injection, schedule: Q04DX004 (ip), vehicle: water): 88 % of control | T/C (dose: 800.0 mg/kg/injection, schedule: Q04DX004 (ip), vehicle: water): 98 % of control

CN(C)CN1C(=O)S/C(=C2\C(=O)N(CN(C)C)c3ccccc32)C1=O
T/C [1]: 102 % of control | T/C [2]: 90 % of control | T/C [3]: 90 % of control

COc1ccccc1N1C(=O)C(=O)C(C(C)=O)C1=O (configuration not stated)
T/C (dose: 43.75 mg/kg/injection, schedule: Q04DX004 (ip), vehicle: Klucel (hydroxypropylcellulose) (HPC)): 115 % of control | T/C (dose: 87.5 mg/kg/injection, schedule: Q04DX004 (ip), vehicle: Klucel (hydroxypropylcellulose) (HPC)): 98 % of control | T/C (dose: 175.0 mg/kg/injection, schedule: Q04DX004 (ip), vehicle: Klucel (hydroxypropylcellulose) (HPC)): 100 % of control | T/C (dose: 350.0 mg/kg/injection, schedule: Q04DX004 (ip), vehicle: Klucel (hydroxypropylcellulose) (HPC)): 98 % of control

CCC(NC(N)=O)C(CC)NC(N)=O (configuration not stated)
T/C (dose: 12.5 mg/kg/injection, schedule: Q04DX004 (ip), vehicle: saline with Tween-80): 92 % of control | T/C (dose: 25.0 mg/kg/injection, schedule: Q04DX004 (ip), vehicle: saline with Tween-80): 92 % of control

C=C1COC(O)(C2OCOC(C3CC(=O)NC(=O)C3)C2O)C1C (configuration not stated)
T/C (dose: 4.0 micrograms/kg/injection, schedule: Q04DX004 (ip), vehicle: water): 112 % of control | T/C (dose: 8.0 micrograms/kg/injection, schedule: Q04DX004 (ip), vehicle: water): 117 % of control | T/C (dose: 13.8 micrograms/kg/injection, schedule: Q04DX004 (ip), vehicle: water): 105 % of control | T/C (dose: 16.0 micrograms/kg/injection, schedule: Q04DX004 (ip), vehicle: water): 117 % of control | T/C (dose: 23.04 micrograms/kg/injection, schedule: Q04DX004 (ip), vehicle: water): 116 % of control | T/C (dose: 38.0 micrograms/kg/injection, schedule: Q04DX004 (ip), vehicle: water): 162 % of control | T/C (dose: 38.4 micrograms/kg/injection, schedule: Q04DX004 (ip), vehicle: water): 110 % of control

O=C(Nc1cccc(NC(=O)c2nn[nH]n2)n1)c1nn[nH]n1
T/C [1]: 99 % of control | T/C [2]: 102 % of control | T/C [3]: 94 % of control

Nc1nc2c(ncn2C2CC3[O][Sn]([c]4ccccc4)([c]4ccccc4)[O]CC3O2)c(=O)[nH]1 (configuration not stated)
T/C (dose: 25.0 mg/kg/injection, schedule: Q04DX004 (ip), vehicle: distilled water + Tween-80): 99 % of control | T/C (dose: 50.0 mg/kg/injection, schedule: Q04DX004 (ip), vehicle: distilled water + Tween-80): 90 % of control | T/C (dose: 100.0 mg/kg/injection, schedule: Q04DX004 (ip), vehicle: distilled water + Tween-80): 88 % of control | T/C (dose: 200.0 mg/kg/injection, schedule: Q04DX004 (ip), vehicle: distilled water + Tween-80): 92 % of control
